# Measurements: patent US9606107B2, “Crk—a novel target for cancer therapy” (priority 2011, dated 2017)
# Peptide text beside a SMILES is read from it. * marks the point of attachment. Cbz = O=C(OCc1ccccc1)*; CH2F = FC*
# Key:
# Type in all cases: cell-based
# HeLa cells [1] = test: Apoptosis / cell death of transiently transfected HeLa cells by IF time-lapse video microscopy with propidium iodide
# From the text: FIGS. 2A-2D illustrate photographically, graphically and in a chart that transient transfection of DN Crk induces cell death in HeLa cells. Specifically, HeLa cells were transiently transfected with wild type CrkI (pCrkI), SH2 DN (pCrkI/R38K), or SH3 DN (pCrkI/W170K) fused to C FP in the absence (FIG. 2A) or presence (FIG. 2B) of carbobenzoxy-valyl-alanyl-aspartyl-[O-methyl], or ZVAD. The tabulated results shown in FIG. 2D, were collected from multiple videos. The time to death was defined as the time of expression of transfected gene (appearance of green) to the time of PI uptake (appearance of yellow) and expressed as the mean+SEM.
# We postulated that if modification of Crk by ExoT is responsible for inducing anoikis, DN mutations in CrkI domains might also result in apoptosis, phenocopying the ExoT's cytotoxicity. To investigate this hypothesis, HeLa cells were transfected with mammalian expression vectors harboring CrkI or its SH2 (CrkI/R38K) or SH3 (CrkI/W170K) DN mutant forms, fused at their C-termini to GFP, and assessed apoptosis by IF video microscopy in the presence or absence of Z-VAD, a pancaspase inhibitor that blocks known apoptotic cell deaths. […]
# (§1) ExoT inhibits ASCS formation. […] We assessed the proliferation capacity index associated with ExoT- or CrkI apoptotic cells. […]
# HeLa cells [2] = test: ACSC formation, release and signalling in transfected apoptotic HeLa cells (IF time-lapse microscopy)
# From the text: Specifically, HeLa cells were transiently transfected with CrkI-GFP expression vector. CrkI forms complexes (indicated […] which go through a cytoplasmic bridge from a dying cell (indicated by red arrow) and induce healthy neighbor recipient cells (indicated by yellow arrow) to divide. Six frames (FIGS. 3A-3F) from IF timelapse microscopy are shown.
# FIG. 4 graphically illustrates that ACSC formation is an active process. Specifically, the incidence of apoptotic compensatory signaling complex (ACSC) release from CrkI, CrkI-R38K (SH2 DN), and CrkI-VV170K (SH3 DN) transfected HeLa cells is shown in bar chart form.
# FIG. 5 graphically illustrates that ACSC formation is regulated differently by SH2 and SH3 domains. Specifically, the number of ACSC complexes per apoptotic CrkI, CrkI (SH2 DN), and CrkI (SH3 DN) transfected HeLa cells was determined and the results are presented in bar chart form.
# FIGS. 6A-6C photographically illustrate that the ADPRT domain of ExoT appears to inhibit ACSC. […]
# as §1
# [3] = test system: 4T1 metastatic breast tumor cells; test: Cytotoxicity in 4T1 metastatic breast tumor cells by PI staining, immunofluorescent timelapse microscopy
# Experimental: Specifically, in FIGS. 9A-9C, 4T1 cells were infected with PA103 strains expressing ExoT or defective in ExoT expression (Mock), or treated with 50 μM cisplatinum (Cisplatin).
# Specifically, 4T1 cells were infected with PA103 strains expressing ExoT (ExoT) […] or defective in ExoT expression (Mock) (FIG. 9A), or treated with 50 μM cisplatinum (Cisplatin) (FIG. 9C). Cytotoxicity was determined by propidium iodide (PI) staining using immunofluorescent timelapse microscopy (FIG. 9D).
# HeLa-S3 cells = test: Cytotoxicity of ExoT-expressing PA103 infection in anoikis-resistant HeLa-S3 cells (PI uptake, video microscopy); settings: ExoT-expressing PA103 strain, MOI about 10
# Experimental: Anoikis-sensitive (HeLa) or Anoikis-resistant (HeLa S3) cells were infected with the ExoT-expressing PA strain (PA103 AU) at an MOI of ca. 10. Host cell death was assessed by uptake of propidium iodide (PI) by simultaneous time lapse phase and fluorescent video microscopy. Video images were captured every 15 min. Representative frames are shown.
# To test this hypothesis, 1×10^5 HeLa and HeLa-S3 cells were infected with ExoT-expressing PA103 strain at MOI of about 10 and assessed apoptosis by immunofluorescent (IF) video microscopy in the presence of propidium iodide (PI) as described.
# B16 melanoma cells = test: Cytotoxicity in B16 melanoma cells by PI staining, immunofluorescent time lapse microscopy; settings: infection with ExoT-expressing P. aeruginosa, MOI 10, or transfection with ExoT-EGFP
# Experimental: Specifically, FIGS. 8A-8C are photographs of B16 cells infected with Pseudomonas aeruginosa strains expressing ExoT or defective in ExoT (Mock) at a multiplicity of infection (MOI) 10 or treated with 50 μM cisplatinum. Cytotoxicity was determined by measuring propidium iodide (PI) staining using immunofluorescent time lapse microscopy. FIG. 8D graphically illustrates the level of cell death, for the samples of FIGS. 8A-8C as indicated by PI staining intensity in pixels as measured from each frame using NIH Image J software.
# B16 cells were infected with Pseudomonas aeruginosa strains expressing ExoT or defective in ExoT (Mock), at multiplicity of infection (MOI) 10 or treated with 50 μM cisplatinum (FIGS. 8A-8C). Cytotoxicity was determined by measuring propidium iodide (PI) staining (red) using immunofluorescent time lapse microscopy. Still images are shown. The level of cell death, indicated by PI staining intensity (pixels), was measured from each frame using NIH Image J software (FIG. 8D). B16 melanoma cells were transiently transfected with pIRES expression vectors, harboring ExoT-EGFP or EGFP alone. Cytotoxicity was determined by PI staining using IF microscopy.
# HeLa cells [4] = test: Proliferation capacity index of transfected apoptotic cells (mitotic cells in neighbouring cells); settings: compared to CrkI-transfected apoptotic cells; within six hours after cell rounding
# From the text: FIG. 7 graphically illustrates that ExoT blocks ACSC-induced proliferation in surrounding cells. Specifically, the proliferation capacity index of the CrkI-EGFP or ExoTEGFP transfected apoptotic cells was defined based on the capacity to induce proliferation in the neighboring cells within six hours after cell rounding.
# ExoT inhibits ASCS formation. […] If ExoT inhibited ACSC assembly and signaling, it was reasoned that there should be a reduction in the number of mitotic cells surrounding the ExoT-induced apoptotic cells. We assessed the proliferation capacity index associated with ExoT- or CrkI apoptotic cells. […] Without being bound to any particular theory, it is believed that CrkI adaptor protein functions as a scaffold for the ACSC assembly and that PA utilizes ExoT to block this process while inducing apoptosis in its target host.
compound,measurement,setting,value
"COC(=O)C[C@H](NC(=O)[C@H](C)NC(=O)[C@@H](NC(=O)OCc1ccccc1)C(C)C)C(=O)CF [Z-VAD, carbobenzoxy-valyl-alanyl-aspartyl-[O-methyl], reference compound] (Cbz-Val-Ala-Asp(OMe)-CH2F)",apoptotic PCD,HeLa cells [1]; treatment with Z-VAD,blocked
same,ACSC formation,"HeLa cells [2]; treatment with Z-VAD, all conditions",completely blocked
"N.N.[Cl][Pt][Cl] [cisplatin, cisplatinum, reference compound]",cell death in 4T1 cells,[3]; 50 μM cisplatinum,kill 4T1 cells
ExoT,apoptosis (cell death) in transfected HeLa cells,"HeLa cells [1]; transient transfection with expression vector, IF video microscopy, PI",100%
same,cell death in 4T1 cells,[3]; infection with PA103 strain expressing ExoT,potent inducer of cell death
same,ExoT-induced cytotoxicity in HeLa-S3 cells,HeLa-S3 cells,resistant
same,cytotoxicity in B16 melanoma cells,B16 melanoma cells,potent cytotoxicity
same,percentage of mitotic cells surrounding transfected apoptotic HeLa cells,HeLa cells [4],substantial reduction
same,ACSC-like globular complexes in transfected apoptotic HeLa cells,HeLa cells [2]; transfection with ExoT fusion vectors,never observed
